This is an account of results in patent US20050014690A1, “Styryl acrylonitrile compounds and their use to promote myelopoiesis” (priority 2001, published 2005).

Data set [1] relates to cells of the myeloid lineage. The data set can be described thus: Promotion of myelopoiesis (general statement). To be noted: in vitro, ex vivo and in vivo.
Data set [2] relates to normal bone marrow cells. The data set can be described thus: CFU-GEMM colony assay, normal bone marrow, compound present for 14 days. The note with it: for number of CFU-GM or CFU-C colonies: in vitro assays of human bone marrow cell growth, continual exposure for 14 days, about 1-20 μM. Type of data set: cell-based, human. The procedure: Treatment of normal bone marrow in culture with CR4. The CFU-GEMM assay was performed according to Fauser and Messner (Blood, 52(6) 1243-8,1978) and Messner and Fausser (Blut 41(5) 327-33, 1980) with some variations. In brief, heparinized bone marrow cells were layered over Percoll (1.077 gm/ml) and centrifuged at 400 g at 4° C. for 10 minutes to remove neutrophils and RBCs. The fractionated BM cells at 2×10^5 cells/ml were cultured in IMDM containing 0.9% (vol/vol) methylcellulose supplemented with 30% FCS or normal human plasma, a cocktail of cytokines containing G-CSF (10 ng/ml), IL-3 (40 U/ml), MGF (50 ng/ml), Erythropoietin (2u/ml) or TPO (10 ng/ml) and 5×10^−5M μ-2-mercaptoethanol. CR4 was added to the cells in concentrations indicated in FIG. 1 and the culture mixture was plated in 1 ml volumes into 35 mm petri dishes and incubated at 37° C., 5% CO2 in a humidified atmosphere. All cultures were evaluated at 14 days for the number of BFU-E colonies (defined as aggregates of more than 500 hemaglobinized cells or, 3 or more erythroid subcolonies), CFU-C colonies (defined as granulocyte or monocyte-macrophage cells or both), and CFU-GEMM colonies (a mixed population comprising of all elements). All control samples in this and other examples were treated with the matching concentration of the solvent (DMSO) for the compounds in the same medium or in the case of Example 21, PBS, as indicated. CFU-C stimulation with CR4 dose response. Bone marrow cells were prepared as in Example 15. CR4 was added to the cells at 10 or 20 μM. The culture mixture was plated in 1 ml volumes into 35 mm petri dishes and incubated at 37° C., 5% CO2 in a humidified atmosphere. All cultures were evaluated at 14 days for the number of CFU-C colonies (defined as granulocyte or monocyte-macrophage cells or both). […] Stimulation of CFU-C colony formation by CR11. Bone marrow cells were prepared as in Example 15. CR11 was added to the cells at 10 or 20 μM. The culture mixture was plated in 1 ml volumes into 35 mm petri dishes and incubated at 37° C., 5% […] in a humidified atmosphere. All cultures were evaluated at 14 days for the number of CFU-C colonies. […] CFU-C stimulation with CR19 dose response. Bone marrow cells were prepared as in Example 15. The culture mixture was plated in 1 ml volumes into 35 mm petri dishes and incubated at 37° C., 5% CO2 in a humidified atmosphere. All cultures were evaluated at 14 days for the number of BFU-E and CFU-C colonies.

Data set [3] has as its system mice. Kind of data set: Peripheral white blood cell count in mice. It is filed as in vivo. To be noted: for white blood cell counts: mice injected daily, peripheral blood after 14 and 17 days, FIG. 9. The protocol:
Promotion of peripheral white blood cell count by CR11. Mice were injected daily with CR11. 250 μl of 400 μM CR11 was injected in PBS. Controls were injected with matching concentrations of CR11 solvent (DMSO) in PBS, or recombinant human G-CSF. After 14 and 17 days blood peripheral blood samples were taken and white blood cell counts determined. Results from each group were averaged.

The subject of data set [4] is mice. The data set can be described thus: Granulocytes in the spleen of treated mice. Type of data set: in vivo.
Data set [5] has as its system transformed cell. The data set can be described thus: Transformed cell growth. It is filed as cell-based.

Consider `COc1cc(/C=C/C=C(C#N)C#N)cc(OC)c1O` [CR7, (E,E)-2-cyano-3-(3,5-dimethoxy-4-hydroxystyryl)acrylonitrile], for which the promoting myelopoiesis result in data set [1] is on record as “capable of promoting myelopoiesis”.

With `COc1cc(/C=C/C=C(\C#N)C(=O)NCCc2ccccc2)cc(OC)c1O` [CR8, (E,E)-2-(Phenylethylamido)-3-(3,5-dimethoxy-4-hydroxystyryl)acrylonitrile], the promoting myelopoiesis result in data set [1] is “capable of promoting myelopoiesis”.

For `COc1cc(/C=C/C=C(\C#N)C(=O)NCc2ccc(O)c(O)c2)cc(OC)c1O` [CR11, (E,E)-2-(3,4-Dihydroxybenzylaminocarbonyl)-3-(3,5-dimethoxy-4-hydroxystyryl)acrylonitrile], the CFU-C colony formation entry is on record as “elevated colony numbers slightly” in data set [2] (10 μM, 14 days) and “significantly increased” in data set [2] (20 μM, 14 days). In addition, the “toxicity to normal bone marrow cells” value in data set [2] (14 days, until concentrations of 20 μM or greater) was “minimal toxicity”. Further, the “number of CFU-GM or CFU-C colonies” value in data set [2] is listed as “effective in increasing”. Moreover, in data set [3] (SCI mouse model, similar kinetics to G-CSF treated mice), the “white blood cells in the peripheral blood” value is given as “Increased numbers”. For the same molecule, the “white blood cell counts” value in data set [3] is given as “significantly increased”. For the same molecule, the normal splenic granulocytes entry in data set [4] (daily injection, SCI mouse model) was “tremendous increase”. Further, the “non-specific damage to the animal” value in data set [4] (doses required to promote myelopoiesis, one month of continual administration) is recorded as “did not result in detectable non-specific damage”. In addition, the transformed cell growth result in data set [5] is listed as “do not promote”. Also, the promoting myelopoiesis entry in data set [1] was “capable of promoting myelopoiesis”.

Regarding `N#C/C(=C\C=C\c1ccccc1)C(=O)NCc1ccc(O)c(O)c1` [CR19, (E,E)-2-(3,4 Dihydroxybenzylaminocarbonyl)-3-styrylacrylonitrile], the CFU-C colony formation entry in data set [2] (2.5 μM, 14 days, FIG. 8) is “significantly increased”. Moreover, the “number of CFU-GM or CFU-C colonies” value in data set [2] is on record as “effective in increasing”. The transformed cell growth entry in data set [5] was “do not promote”. Further, in data set [1], the promoting myelopoiesis entry is “capable of promoting myelopoiesis”.

With `COc1cc(/C=C/C=C(\C#N)C(=O)NCc2ccccc2)ccc1O` [CR56, (E,E)-2-(benzylaminocarbonyl)-3-(3-methoxy-4-hydroxystyryl)acrylonitrile], in data set [1], the promoting myelopoiesis result is “capable of promoting myelopoiesis”.

B1: G-CSF: recombinant human G-CSF (Granulocyte-Colony Stimulating Factor), injected as positive control (protein, UniProt P09919 31-207, looked up)
Granulocyte …: TPLGPASSLPQSFLLKCLEQVRKIQGDGAALQEKLVSECATYKLCHPEELVLLGHSLGIPWAPLSSCPSQALQLAGCLSQLHSGLFLYQGLLQALEGISPELGPTLDTLQLDVADFATTIWQQMEELGMAPALQPTQGAMPAFASAFQRRAGGVLVASHLQSFLEVSYRVLRHLAQP
For B1, in data set [3], the “white blood cell counts” value is on record as “significantly increased”.
